Test results published in PMC11237012, “Synthesis and preliminary evaluation of novel PET probes for GSK-3 imaging” (Scientific Reports, 2024).

Test: In vivo PET imaging, uptake in brain and liver
Parameters: species or system wild-type FVB/NJ mice
Protocol: To evaluate the imaging potential and brain uptake of PET probe [^18F]2, we selected FVB/NJ wild-type mice and performed radiotracer uptake studies via tail vein injection of [^18F]2 followed by dynamic imaging upto 60 min and static imaging at 120 min post-injection. Ex-vivo biodistribution was performed immediately after 120 min static imaging. Uptake of [^18F]2 was assessed in the brain and liver of wild-type FVB/NJ mice by PET imaging at different time points post-injection with and without co-administration of 2 (reference compound as a self-blocking agent). Representative transverse sectional PET images of the brain at different time points are shown in Fig. 6 and representative coronal and sagittal sectional PET images of the liver and whole-body PET images are shown in SI-Figs. S17 and S18, respectively. It was encouraging to observe brain uptake of PET probe [^18F]2 with a standard uptake value (SUV) of 0.92 ± 0.28 (n = 6) at 5 min post-injection. Approximately 80% of PET probe [^18F]2 was cleared from the wild-type mice brain in the first 30 min. The uptake of [^18F]2 in the brain was lower than in the liver at all time points post-injection. […] The contrasting response in uptake of [^18F]2 in the brain in the presence of 2 could be attributed to the peripheral effect. […] This is also evident from the higher concentration of 2 in the blood of the animals in which [^18F]2 was co-administered with 2 as compared to administration of only [^18F]2 (Figs. 6, 7 and 8 and SI-Table S2, SI-Figs. S17, S18). A similar observation was also reported by Lindberg et al. 2021 with [^11C]verubulin in rats, where co-injection of verubulin increased the uptake of [^11C]verubulin in the brain and was attributed to the saturation of the enzymes (e.g. cytochrome P450 enzymes) that metabolize the tracer in the liver, leading to increased bioavailability. It is also plausible that the isonicotinamide class of compounds are substrate for cytochrome P450 enzymes.
Uptake of PET probe [^18F]2 (1.40 ± 0.61 MBq) was assessed with and without co-administration of 2 in 10–13-week-old wild-type FVB/NJ mice (The Jackson Laboratory, Bar Harbor, ME) after tail vein injection followed by PET imaging at 5 min, 10 min, 15 min, 20 min, 25 min, 30 min, 40 min, 50 min, 60 min and 120 min post injection. Additionally, ex vivo biodistribution was performed at 5 min, 10 min and 120 min post tail vein injection. To prepare [^18F]2 formulation for injection, 0.76 ± 0.48 µg (2.01 ± 1.27 nmol) of [^18F]2 was formulated in 10% ethanol/ 90% isotonic saline. For the blocking experiment, 20.21 ± 1.63 µg (53.75 ± 4.33 nmol) of 2 in DMSO was added to [^18F]2 (Am of 87.27 ± 77.26 (n = 13) GBq/µmole, having 0.46 ± 0.31 µg or 1.23 ± 0.83 nmol of nonradioactive 2 in it) in the final formulation volume of ~ 100 µL. This study had 12 wild type FVB/NJ male mice with body weight 31.8 ± 2.7 g and 10 wild type FVB/NJ female mice with body weight 27.0 ± 3.6 g at the time of imaging. All the animals were anesthetized for tail vein injection and PET imaging using an induction dose of 3% isoflurane and a maintenance dose of 2–3% isoflurane, which was administered via isoflurane vaporizer. All anesthetized animals were kept warm during imaging using a heat supported imaging chamber. For ex vivo biodistribution studies, animals were sacrificed at 5 min, 10 min and 120 min post-injection by cervical dislocation and tissues were harvested for gamma counting. For PET imaging studies, each animal underwent a 60 min dynamic PET scan (Framing Sequence: 1 × 10 s, 4 × 15 s, 8 × 30 s, 5 × 60 s, 4 × 300 s, 3 × 600 s) immediately post injection followed by 10 min static PET scan at 120 min post-injection on small animal micro-PET/X-ray system, Genesys 4 (Sofie BioSystems, Dulles, VA, USA). The PET images were reconstructed using Genesys 4 imaging software installed on the imaging system. […]

Question: With `O=C(Nc1cnccc1-c1ccc([18F])cc1)c1ccnc(NC(=O)C2CC2)c1` [[^18F]2] as the compound, how does the “Uptake (SUV) by PET image analysis” value (brain, 5 min post-injection, [^18F]2 + 20 µg of 2) read?
Answer: The value was 0.93 ± 0.06.

Question: And the “Uptake (SUV) by PET image analysis” value (brain, 5 min post-injection, [^18F]2 alone)?
Answer: Its value is 0.92 ± 0.28.

Question: And the “Change of brain uptake on co-administration of compound 2” value (“Change of brain uptake” below) (brain, 5 min time point)?
Answer: Its value is “no difference in uptake”.

Question: And the “Uptake (SUV) by PET image analysis” value (brain, 10 min post-injection, [^18F]2 + 20 µg of 2)?
Answer: Its value is 0.57 ± 1.06.

Question: And the “Uptake (SUV) by PET image analysis” value (brain, 10 min post-injection, [^18F]2 alone)?
Answer: The value was 0.38 ± 0.06.

Question: What about the “Change of brain uptake” value (brain, 10 min time point) of the same compound?
Answer: Its value is 1.5 fold.

Question: And the “Change of brain uptake” value (brain, 15 min, 20 min, 25 min and 30 min time points)?
Answer: Its value is “twofold”.

Question: What about the “Uptake (SUV) by PET image analysis” value (brain, 15 min post-injection, [^18F]2 + 20 µg of 2) of the same compound?
Answer: The value was 0.50 ± 0.06.

Question: And the “Uptake (SUV) by PET image analysis” value (brain, 15 min post-injection, [^18F]2 alone)?
Answer: The value was 0.24 ± 0.03.

Question: And the “Uptake (SUV) by PET image analysis” value (brain, 20 min post-injection, [^18F]2 + 20 µg of 2)?
Answer: Its value is 0.43 ± 0.06.

Question: And the “Uptake (SUV) by PET image analysis” value (brain, 20 min post-injection, [^18F]2 alone)?
Answer: The value was 0.21 ± 0.02.

Question: And the “Uptake (SUV) by PET image analysis” value (brain, 25 min post-injection, [^18F]2 + 20 µg of 2)?
Answer: Its value is 0.40 ± 0.06.

Question: What about the “Uptake (SUV) by PET image analysis” value (brain, 25 min post-injection, [^18F]2 alone) of the same compound?
Answer: Its value is 0.19 ± 0.03.

Question: And the “Uptake (SUV) by PET image analysis” value (brain, 30 min post-injection, [^18F]2 + 20 µg of 2)?
Answer: Its value is 0.36 ± 0.06.

Question: And the “Uptake (SUV) by PET image analysis” value (brain, 30 min post-injection, [^18F]2 alone)?
Answer: The value was 0.19 ± 0.04.

Question: What about the “Uptake (SUV) by PET image analysis” value (brain, 40 min post-injection, [^18F]2 + 20 µg of 2) of the same compound?
Answer: The value was 0.31 ± 0.06.

Question: What about the “Uptake (SUV) by PET image analysis” value (brain, 40 min post-injection, [^18F]2 alone) of the same compound?
Answer: The value was 0.18 ± 0.04.

Question: What about the “Uptake (SUV) by PET image analysis” value (brain, 50 min post-injection, [^18F]2 + 20 µg of 2) of the same compound?
Answer: The value was 0.28 ± 0.06.

Question: What about the “Uptake (SUV) by PET image analysis” value (brain, 50 min post-injection, [^18F]2 alone) of the same compound?
Answer: The value was 0.17 ± 0.03.

Question: And the “Uptake (SUV) by PET image analysis” value (brain, 60 min post-injection, [^18F]2 + 20 µg of 2)?
Answer: Its value is 0.26 ± 0.06.

Question: And the “Uptake (SUV) by PET image analysis” value (brain, 60 min post-injection, [^18F]2 alone)?
Answer: Its value is 0.16 ± 0.03.

Question: And the “Uptake (SUV) by PET image analysis” value (brain, 120 min post-injection, [^18F]2 + 20 µg of 2)?
Answer: The value was 0.18 ± 0.01.

Question: And the “Uptake (SUV) by PET image analysis” value (brain, 120 min post-injection, [^18F]2 alone)?
Answer: Its value is 0.09 ± 0.01.

Question: And the “Uptake (SUV) by PET image analysis” value (liver, 5 min post-injection, [^18F]2 + 20 µg of 2)?
Answer: The value was 5.24 ± 1.46.

Question: And the “Uptake (SUV) by PET image analysis” value (liver, 5 min post-injection, [^18F]2 alone)?
Answer: The value was 5.66 ± 1.18.

Question: What about the “Uptake (SUV) by PET image analysis” value (liver, 10 min post-injection, [^18F]2 + 20 µg of 2) of the same compound?
Answer: Its value is 5.86 ± 0.51.

Question: And the “Uptake (SUV) by PET image analysis” value (liver, 10 min post-injection, [^18F]2 alone)?
Answer: Its value is 7.43 ± 0.66.

Question: What about the “Uptake (SUV) by PET image analysis” value (liver, 15 min post-injection, [^18F]2 + 20 µg of 2) of the same compound?
Answer: The value was 5.49 ± 0.28.

Question: And the “Uptake (SUV) by PET image analysis” value (liver, 15 min post-injection, [^18F]2 alone)?
Answer: The value was 7.89 ± 0.59.

Question: And the “Uptake (SUV) by PET image analysis” value (liver, 20 min post-injection, [^18F]2 + 20 µg of 2)?
Answer: The value was 5.19 ± 0.27.

Question: And the “Uptake (SUV) by PET image analysis” value (liver, 20 min post-injection, [^18F]2 alone)?
Answer: Its value is 7.88 ± 0.60.

Question: What about the “Uptake (SUV) by PET image analysis” value (liver, 25 min post-injection, [^18F]2 + 20 µg of 2) of the same compound?
Answer: The value was 4.93 ± 0.30.

Question: And the “Uptake (SUV) by PET image analysis” value (liver, 25 min post-injection, [^18F]2 alone)?
Answer: The value was 7.61 ± 0.65.

Question: And the “Uptake (SUV) by PET image analysis” value (liver, 30 min post-injection, [^18F]2 + 20 µg of 2)?
Answer: Its value is 4.76 ± 0.33.

Question: And the “Uptake (SUV) by PET image analysis” value (liver, 30 min post-injection, [^18F]2 alone)?
Answer: Its value is 7.34 ± 0.77.

Question: What about the “Uptake (SUV) by PET image analysis” value (liver, 40 min post-injection, [^18F]2 + 20 µg of 2) of the same compound?
Answer: Its value is 4.55 ± 0.23.

Question: What about the “Uptake (SUV) by PET image analysis” value (liver, 40 min post-injection, [^18F]2 alone) of the same compound?
Answer: Its value is 6.91 ± 0.91.

Question: What about the “Uptake (SUV) by PET image analysis” value (liver, 50 min post-injection, [^18F]2 + 20 µg of 2) of the same compound?
Answer: The value was 4.31 ± 1.15.

Question: What about the “Uptake (SUV) by PET image analysis” value (liver, 50 min post-injection, [^18F]2 alone) of the same compound?
Answer: Its value is 6.40 ± 1.04.

Question: And the “Uptake (SUV) by PET image analysis” value (liver, 60 min post-injection, [^18F]2 + 20 µg of 2)?
Answer: The value was 4.09 ± 1.16.

Question: And the “Uptake (SUV) by PET image analysis” value (liver, 60 min post-injection, [^18F]2 alone)?
Answer: Its value is 5.95 ± 1.12.

Question: What about the “Uptake (SUV) by PET image analysis” value (liver, 120 min post-injection, [^18F]2 + 20 µg of 2) of the same compound?
Answer: Its value is 3.19 ± 0.37.

Question: And the “Uptake (SUV) by PET image analysis” value (liver, 120 min post-injection, [^18F]2 alone)?
Answer: Its value is 2.78 ± 1.40.

Question: What about the “Fraction of probe cleared from the brain” value (wild-type mice brain, in the first 30 min) of the same compound?
Answer: The value was “Approximately 80%”.
